# System: WNV protease
# Experiment: High Throughput Screen (HTS) protease assay
# Type: biochemical, West Nile virus (EG101 strain)
# Conditions: 100 nl of 5 mg/ml compound in DMSO per 30.1 μl well; substrate Boc-Gly-Lys-Arg-AMC 50 μM; DMSO controls = 100% activity
# Protocol: Procedures for expression and purification of WNV (EG101 strain) were similar to those described elsewhere by Mueller et al., Int. J. Biochem. Cell. Biol., 39: 606-14 (2007). Briefly, E. coli Top10 F′ cells (Invitrogen, Carlsbad, Calif.) were transformed with the protease expression plasmid. Cells were grown at 37° C. until the OD600 was ˜0.5. Cells were then induced with isopropyl-1-thio-β-D-galactopyranoside (American Bioanalytical, Natick, Mass.) (0.5 mM), and incubated for 4 h at 37° C. Cells were harvested by centrifugation (5000×g) for 15 min at 4° C., washed once with a buffer containing 50 mM Tris-HCl, pH 7.5, and 200 mM NaCl, centrifuged at 5000×g for 15 min at 4° C., and stored at -80° C. until used.
# Proteases were purified by suspending bacterial pellets in 50 mM Hepes, pH 7.0, 500 mM NaCl, (buffer A) with 0.05 mg/ml lysozyme. Cells were incubated for 30 min on ice after addition of 10% stock solution of Triton X-100 (final concentration of 0.5%). Cells were disrupted by sonication for 2 min and the soluble fraction was collected after centrifugation (15,000×g) for 30 min at 4° C. The soluble fraction was incubated for 1 h at 4° C. with Talon resin (BD Bioscience, San Jose, Calif.) which was pre-equilibrated in buffer A. The affinity resin was centrifuged at (400×g) for 10 min at 4° C., washed three times with buffer A, and packed into a column. Washing of the column was continued with the buffer A containing 10 mM imidazole, followed by elution of the protease with buffer A containing 150 mM imidazole. The protease was concentrated and further purified by Sephadex G-75 gel filtration chromatography. The purified protease fractions were pooled and dialyzed against a buffer containing 50 mM Tris-HCl pH 7.5 and 300 mM NaCl (4×1 L). Aliquots (100 μl) were frozen at −80° C.
# The protease assay (100 μl) described by Mueller et al., Int. J. Biochem. Cell. Biol. 39: 606-14 (2007) was adapted for a 384-well plate format (30.1 μl). Microtiter plates were loaded sequentially with 14 μl of the reaction buffer containing 200 mM Tris-HCl, pH 9.5, and 30% glycerol (TG buffer) using an automated Wellmate (Matrix, Hudson, N.H.) and 6 μl of WNV protease (0.05 μM) (as prepared above) in TG buffer containing 15 mM NaCl (3 mM final concentration). Plates were then centrifuged at 1000×g for 3 min at room temperature to mix samples and pool liquids at the bottom of the wells. Inhibitor compounds (100 nl of 5 mg/ml in dimethyl sulfoxide; DMSO) were added to each well in duplicate by a pin-transfer mechanism of a robotic delivery system. The final inhibitor concentrations in the assays varied due to different molecular weights of the compounds from the libraries that were screened. Plates were incubated at room temperature to allow for formation of protease/inhibitor complexes. The fluorogenic substrate, t-butyl-oxycarbonyl(Boc)-Gly-Lys-Arg-7-amino-4-methyl coumarin (AMC) (10 μl in TG buffer; 50 μM final concentration in the reaction mixture), was added using the Wellmate, and the plates were centrifuged for 3 min at 1000×g and incubated at room temperature for 15 min. Fluorescence was measured at excitation and emission wavelengths of 385 nm and 465 nm, respectively, on a Perkin-Elmer (Waltham, Mass.) spectrofluorometer. To validate the assay conditions, aprotinin (bovine pancreatic trypsin inhibitor, BPTI) was used as a positive control. Assay mixtures containing DMSO were used as negative controls. The average of fluorescence values in duplicate wells for a given compound was used to determine the percent activity by taking the values obtained with DMSO controls as 100%. Compounds 1-11, 18-32, and 37-101 above were identified. […] Compounds 12-17 are compounds related to those identified in the HTS screen that also show significant WNV protease inhibition, i.e., >95%.
row,SMILES,% Inhibition (reduction in protease activity) [%]
1,CC(NC(=O)Cc1cccs1)C(c1cccs1)N1CCN(c2ccccc2)CC1 (stereo not drawn) [Compound 66],62
2,CC1=NC(NC(=O)CCN2C(=O)/C(=C/C(C)=C/c3ccccc3)SC2=S)[SH]=C1 (stereo not drawn) [Compound 24],70
3,O=c1[nH]c2ccccc2c(O)c1-c1nc2ccccc2s1 [Compound 48],67
4,Cc1ccnc(NC(c2ccccc2O)c2ccc3cccnc3c2O)c1 (stereo not drawn) [Compound 12],>95
5,CC(/C=C1\SC(=S)N(CC(=O)Nc2ccccn2)C1=O)=C\c1ccccc1 [Compound 19],76.5
6,Cc1ccc(NC(=O)C23C(=O)Oc4ccccc4C2C3(C)C(=O)c2ccccc2)cc1 (stereo not drawn) [Compound 68],61
7,CC(/C=C1\SC(=S)N(CCC(=O)Nc2ccccc2O)C1=O)=C\c1ccccc1 [Compound 25],67
8,O=C1C(c2ccccc2)c2ccccc2N1Cc1ccccc1 (stereo not drawn) [Compound 43],54
9,CCOc1cc2c(cc1OCC)C1C(C(=O)NCCCN3CCN(C)CC3)c3ccccc3C(=O)N1CC2 (stereo not drawn) [Compound 61],51
10,CC1=Nc2ccccc2N=C(NC(=O)CSc2nnnn2-c2ccccc2)C1c1ccccc1 (stereo not drawn) [Compound 79],56
11,N#CCC(=O)Nc1ccc(Oc2ccccc2)cc1 [Compound 97],51
12,O=C(COc1cccc2ccccc12)N1CCc2ccccc2C1 [Compound 47],83
13,O=C(CCCN1C(=O)/C(=C/C=C/c2ccccc2)SC1=S)Nc1cccc(O)c1 [Compound 28],63
14,Cc1ccc(CNC(=O)Cc2ccc(-n3cccc3)cc2)cc1 [Compound 77],56
15,C=CCn1c(Cc2ccccc2)nc2c(cnn2-c2ccccc2)c1=O [Compound 52],52
16,Cc1ccc(-n2nc3c(c2NC(=O)CCC2CCCC2)CSC3)cc1 [Compound 101],50
17,COc1ccc(OCC(=O)OCCN2C(=O)c3ccccc3C2=O)cc1 [Compound 39],57
18,C=CCn1c(SCc2ccc(C(=O)OC)cc2)nc2ccccc2c1=O [Compound 56],51
19,CCCCC(=O)NC(c1cccs1)c1cc(Cl)c2cccnc2c1O (stereo not drawn) [Compound 7],76

row,SMILES,% Inhibition (reduction in protease activity) [%]
1,COc1ccc(NC(=O)C(NC(=O)Cc2cccs2)c2ccccc2)cc1 (stereo not drawn) [Compound 78],56
2,COC(=O)/C=C1\S/C(=N/c2ccc(Cl)cc2)N(c2ccc(Cl)cc2)C1=O [Compound 32],59
3,CC1CCN(S(=O)(=O)c2ccc(NC(=O)/C=C/c3ccco3)cc2)CC1 [Compound 62],72
4,O=C(c1conc1-c1ccccc1)n1cccc1 [Compound 40],56
5,COC(=O)c1ccc2c(c1)N(Cc1nc(-c3ccccc3C)oc1C)C(=O)C1CCCN21 (stereo not drawn) [Compound 49],58
6,O=C(Nc1ccc(Cl)cc1)Oc1ccccc1N1CCSCC1 [Compound 82],55
7,CCOC(=O)c1c(CC(C)C)csc1NC(=O)Cc1ccccc1 [Compound 83],54
8,Cc1ccc(-c2noc(CCC(=O)NCC3CCN(Cc4cccc(C)c4)CC3)n2)cc1 [Compound 98],51
9,COC(=O)c1ccc(C(Nc2ccccn2)c2ccc3ccc(C)nc3c2O)cc1 (stereo not drawn) [Compound 3],84.5
10,Cc1nnc(NC(=O)CSc2cn(Cc3ccccc3)c3ccccc23)s1 [Compound 84],54
11,CCc1ccccc1NC(=O)Cn1cccc1C1=NC(c2ccccc2)CO1 (stereo not drawn) [Compound 100],50
12,O=C(Cn1cnc2ccccc2c1=O)Nc1ccc(Oc2ccccc2)cc1 [Compound 60],51
13,CCOC(=O)C1C(=O)N(C(=O)c2ccc(OC)cc2)CC1c1ccccc1 (stereo not drawn) [Compound 46],50
14,CC(C)(C)C1CCC(C(=O)OCC(=O)Nc2ccc(C(N)=O)cc2)CC1 (stereo not drawn) [Compound 65],63
15,COc1ccc(C(NC(=O)c2ccccc2)c2ccc3cccnc3c2O)cc1 (stereo not drawn) [Compound 1],86
16,Clc1ccc(CN2COc3c(cc(Cl)c4cccnc34)C2)cc1 [Compound 37],71
17,Cc1ccc(-c2csc(-n3sc4ccccc4c3=O)n2)cc1 [Compound 45],52
18,O=C1NC(=S)S/C1=C\c1ccc(-c2cccc(C(F)(F)F)c2)o1 [Compound 30],53
19,CC(C)c1ccc(NC(=O)CSC(=O)c2ccccc2)cc1 [Compound 92],52

row,SMILES,% Inhibition (reduction in protease activity) [%]
1,CN(C)c1ccc(C(Nc2nccs2)c2ccc3cccnc3c2O)cc1 (stereo not drawn) [Compound 6],76
2,COc1cccc(CNC(=O)c2[nH]c(C)c(C(=O)NC3CCCCC3)c2C)c1 [Compound 93],52
3,COc1ccc(NC(=O)c2c(N)sc(-c3ccccc3)c2C)cc1 [Compound 63],65
4,O=C(CCC(=O)c1ccc(Cl)cc1)Nc1c(F)cccc1F [Compound 71],59
5,O=C(Nc1ccc(F)cc1F)c1ccc2c(c1)C(=O)N(Cc1ccco1)C2=O [Compound 58],55
6,CCN1C(=O)/C(=C/c2ccc(NC(=O)c3ccccc3Br)cc2)SC1=S [Compound 18],83.5
7,Cc1ccc(NC(=O)c2cnn(-c3ccccc3)c2NC(=O)c2ccco2)cc1 [Compound 73],58
8,O=C(Nc1nc(SCc2ccc(F)cc2)ns1)c1cccs1 [Compound 99],50
9,O=C1N=c2ccc(S(=O)(=O)N(CCc3ccccc3)Cc3ccccc3)cc2=NC1=O [Compound 50],55
10,O=C1Nc2ccccc2/C1=C/c1ccccc1N1CCOCC1 [Compound 44],52
11,O=C1c2ccccc2C(O)(Cc2ccccc2)N1c1ccc2c(c1)OCO2 (stereo not drawn) [Compound 42],54
12,CC(Oc1cc(Cl)ccc1Cl)C(=O)N1CCc2ccccc21 (stereo not drawn) [Compound 38],58
13,Cc1ccc2ccc(C(Nc3ccccn3)c3ccc4c(c3)OCO4)c(O)c2n1 (stereo not drawn) [Compound 4],83
14,COC(=O)c1cc2oc3ccccc3c2n1CC(=O)NCc1ccco1 [Compound 67],61
15,Cc1ccc(/N=C2\NC(=O)C(CC(=O)Nc3ccc(OC(F)(F)F)cc3)S2)cc1 (stereo not drawn) [Compound 81],55
16,Nc1sc2c(c1C(=O)NCCc1ccccc1)CCC2 [Compound 72],59
17,CC(/C=C1\SC(=S)N(CC(=O)Nc2cccnc2)C1=O)=C\c1ccccc1 [Compound 22],72.5
18,C=CCOc1cccc(C(Nc2cccc(C)n2)c2ccc3cccnc3c2O)c1 (stereo not drawn) [Compound 5],81
19,CCC(C(=O)Nc1c2c(nn1-c1ccc(F)cc1)CSC2)c1ccccc1 (stereo not drawn) [Compound 76],57

# — patent US8563580B2, “Flavivirus inhibitors and methods for their use” (Georgetown University, priority 2008, dated 2013)
